Experimental data: ChEMBL document CHEMBL3044716, “Discovery of imidacloprid and further developments from strategic molecular designs” (J Agric Food Chem, 2011)
Activity calls are given as the source filed them. No cut-off for these calls is given here.

What was measured:
Nephotettix cincticeps [1] = assay: Insecticidal activity against Nephotettix cincticeps (green rice leafhopper) assessed as mortality measured after 4 days; type: functional
Nephotettix cincticeps [2] = assay: Insecticidal activity against Nephotettix cincticeps (green rice leafhopper) in rice plant assessed as mortality at 100 mg/L insects released after 3 days of compound treatment measured after 48 hr of insect release; type: functional
Nephotettix cincticeps [3] = assay: Insecticidal activity against Nephotettix cincticeps (green rice leafhopper) in rice plant assessed as mortality at 100 mg/L insects released after 3 days of compound treatment measured after 24 hr of insect release; type: functional
Nephotettix cincticeps [4] = assay: Insecticidal activity against Nephotettix cincticeps (green rice leafhopper) in rice plant assessed as mortality at 100 mg/L insects released after 7 days of compound treatment measured after 72 hr of insect release (reference value: 0%); type: functional
Nephotettix cincticeps [5] = assay: Insecticidal activity against Nephotettix cincticeps (green rice leafhopper) in rice plant assessed as mortality at 100 mg/L insects released after 14 days of compound treatment measured after 72 hr of insect release (reference value: 0%); type: functional
Nephotettix cincticeps [6] = assay: Insecticidal activity against Nephotettix cincticeps (green rice leafhopper) in rice plant assessed as mortality at 100 mg/L insects released after 14 days of compound treatment measured after 24 hr of insect release; type: functional
Nephotettix cincticeps [7] = assay: Insecticidal activity against Nephotettix cincticeps (green rice leafhopper) in rice plant assessed as mortality at 100 mg/L insects released after 14 days of compound treatment measured after 48 hr of insect release; type: functional
[8] = Photolysis of the compound assessed as half life at 30 degC by 250 W sun lamp; type: physicochemical
Nephotettix cincticeps [9] = assay: Insecticidal activity against Nephotettix cincticeps (green rice leafhopper) in rice plant assessed as mortality at 100 mg/L insects released after 7 days of compound treatment measured after 48 hr of insect release; type: functional
Nephotettix cincticeps [10] = assay: Insecticidal activity against Nephotettix cincticeps (green rice leafhopper) in rice plant assessed as mortality at 100 mg/L insects released after 3 days of compound treatment measured after 72 hr of insect release (reference value: 0%); type: functional
Nephotettix cincticeps [11] = assay: Insecticidal activity against Nephotettix cincticeps (green rice leafhopper) in rice plant assessed as mortality at 100 mg/L insects released after 7 days of compound treatment measured after 24 hr of insect release; type: functional
Spodoptera litura = assay: Insecticidal activity against Spodoptera litura (tobacco cutworm) assessed as mortality measured as LC90; type: functional
Myzus persicae [12] = assay: Insecticidal activity against Myzus persicae (green peach aphid) in cabbage plant assessed as mortality at 100 mg/L insects released after 3 days of compound treatment measured after 72 hr of insect release (reference value: 14 +/- 4%); type: functional
Myzus persicae [13] = assay: Insecticidal activity against Myzus persicae (green peach aphid) in cabbage plant assessed as mortality at 100 mg/L insects released after 7 days of compound treatment measured after 72 hr of insect release (reference value: 10 +/- 3%); type: functional
Myzus persicae [14] = assay: Insecticidal activity against Myzus persicae (green peach aphid) in cabbage plant assessed as mortality at 100 mg/L insects released after 14 days of compound treatment measured after 72 hr of insect release (reference value: 0%); type: functional

SMILES | LC90 (Nephotettix cincticeps [1]) | also measured
CCCCCCN1CCN(Cc2ccc(Cl)nc2)/C1=N/[N+](=O)[O-] | 40 ppm | 
CCOC(=O)/N=C1\NCCN1Cc1ccc(Cl)nc1 | 40 ppm | 
CN/C(=C\[N+](=O)[O-])NCc1ccccc1 | inactive | 
O=[N+]([O-])/C=C1\NCCN1Cc1cccc(Cl)c1 | 200 ppm | 
CN1CCN/C1=C\[N+](=O)[O-] | 1000 ppm | 
O=[N+]([O-])/C=C1\NCCN1Cc1ccc[nH]1 | 200 ppm | 
O=[N+]([O-])/N=C1\NCCN1Cc1ccc(Cl)nc1 [IMIDACLOPRID] | <0.32 ppm | mortality (Nephotettix cincticeps [2]): 80%; mortality (Nephotettix cincticeps [3]): 47%; mortality (Nephotettix cincticeps [4]): 100%; mortality (Nephotettix cincticeps [5]): 100%; mortality (Nephotettix cincticeps [6]): 95%; mortality (Nephotettix cincticeps [7]): 100%; half-life [8]: 3 h; mortality (Nephotettix cincticeps [9]): 100%; mortality (Nephotettix cincticeps [10]): 100%; mortality (Nephotettix cincticeps [11]): 89%
N#Cc1cccc(CN2CCN/C2=C\[N+](=O)[O-])c1 | 40 ppm | 
COc1ccc(CN2CCN/C2=C\[N+](=O)[O-])cn1 | 200 ppm | 
O=[N+]([O-])/C=C1\NCCN1Cc1ccncc1 | 8 ppm | 
O=[N+]([O-])/C=C1\NCCN1Cc1cncnc1 | 8 ppm | 
O=[N+]([O-])/C=C1\NCCN1Cc1ccn[nH]1 | 200 ppm | 
CCOC(=O)/C=C1\NCCN1Cc1ccc(Cl)nc1 | inactive | 
CCCCCN1CCN(Cc2ccc(Cl)nc2)/C1=N/[N+](=O)[O-] | 20 ppm | 
O=[N+]([O-])/C=C1\NCCN1C1CCCCC1 | 1000 ppm | 
O=[N+]([O-])/C=C1\SCCN1Cc1ccc(Cl)nc1 |  | half-life [8]: < 0.5 h
O=[N+]([O-])/C=C1\NCCCCN1Cc1ccccc1 | 1000 ppm | 
O=[N+]([O-])/N=C1\NCCCN1Cc1ccc(Cl)nc1 |  | half-life [8]: 3.5 h
O=[N+]([O-])/C=C1\NCCN1Cc1cccs1 | 200 ppm | 
O=[N+]([O-])C=C1NCCN1 [2-(NITROMETHYLENE)IMIDAZOLIDINE] | 1000 ppm | 
O=C1NCCN1Cc1ccc(Cl)nc1 | 1000 ppm | 
O=[N+]([O-])/C=C1\NCCCN1Cc1ccccc1 | >200 ppm | 
O=[N+]([O-])/C=C1\NCCN1Cc1cnccn1 | 8 ppm | 

SMILES | LC90 (Nephotettix cincticeps [1]) | also measured
N#CC(C#N)=C1NCCN1Cc1ccc(Cl)nc1 | 40 ppm | 
C=CCN1CCN(Cc2ccc(Cl)nc2)/C1=N/[N+](=O)[O-] | 0.32 ppm | 
CSc1ccc(CN2CCN/C2=C\[N+](=O)[O-])cn1 | 1000 ppm | 
CC(=O)Nc1ccc(CN2CCN/C2=C\[N+](=O)[O-])cn1 | 1000 ppm | 
CS(=O)(=O)/N=C1\NCCN1Cc1ccc(Cl)nc1 | 40 ppm | 
O=[N+]([O-])/C=C1\NCCN1Cc1cccnc1 | 8 ppm | 
N=C1NCCN1Cc1ccc(Cl)nc1 [DESNITROIMIDACLOPRID] | 1000 ppm | 
O=[N+]([O-])/C=C1\NCCN1Cc1ccc(Br)nc1 | 1.6 ppm | 
COc1ccc(CN2CCN/C2=C\[N+](=O)[O-])cc1 | 200 ppm | 
O=[N+]([O-])/C=C1\NCCCN1Cc1ccc(Cl)nc1 |  | half-life [8]: 2 h
O=[N+]([O-])/C=C1\NCCN1Cc1ccc(Cl)cc1 | 40 ppm | LC90 (Spodoptera litura): 500 ppm
O=[N+]([O-])/C=C1\NCCN1Cc1cncc(Cl)c1 | 40 ppm | 
O=[N+]([O-])/C=C1\NCCN1Cc1ccccc1 | 200 ppm | 
O=[N+]([O-])/C=C1\NCCN1Cc1ccccn1 | 200 ppm | 
O=[N+]([O-])/C=C1\NCCN1Cc1ccco1 | 200 ppm | 
O=[N+]([O-])/C=C1\NCCN1Cc1ccc(C(F)(F)F)nc1 | 8 ppm | 
O=[N+]([O-])/C=C1\NCCCCCN1Cc1ccccc1 | 1000 ppm | 
O=[N+]([O-])/N=C1/N(CCCCCCCN2CCN(Cc3ccc(Cl)nc3)/C2=N/[N+](=O)[O-])CCN1Cc1ccc(Cl)nc1 [Heptamethylene 1,7-bis-imadacloprid] |  | mortality (Nephotettix cincticeps [2]): 40%; mortality (Nephotettix cincticeps [3]): 13%; mortality (Nephotettix cincticeps [4]): 100%; mortality (Myzus persicae [12]): 100%; mortality (Nephotettix cincticeps [5]): 100%; mortality (Nephotettix cincticeps [6]): 100%; mortality (Nephotettix cincticeps [7]): 100%; mortality (Myzus persicae [13]): 100%; mortality (Nephotettix cincticeps [9]): 100%; mortality (Nephotettix cincticeps [10]): 100%; mortality (Nephotettix cincticeps [11]): 83%; mortality (Myzus persicae [14]): 100%
Cc1ccc(CN2CCN/C2=C\[N+](=O)[O-])cn1 | 1.6 ppm | 
O=[N+]([O-])N=C1N(Cc2ccc(Cl)nc2)CCN1Cc1ccc(Cl)nc1 | 1.6 ppm | 
CCCCN1CCN(Cc2ccc(Cl)nc2)/C1=N/[N+](=O)[O-] | 1.6 ppm | 
O=[N+]([O-])/C=C1\NCCN1Cc1cnc2ccccc2c1 | inactive | 
O=[N+]([O-])/C=C1\NCCN1CCc1ccccc1 | inactive | 

SMILES | LC90 (Nephotettix cincticeps [1]) | also measured
O=[N+]([O-])/C=C1\NCCN1Cc1cncs1 | 8 ppm | 
CN1CCN(Cc2ccc(Cl)nc2)/C1=N/[N+](=O)[O-] | 1.6 ppm | 
O=[N+]([O-])/C=C1\NCCN1Cc1ccc([N+](=O)[O-])cc1 | 200 ppm | 
O=[N+]([O-])/C=C1\NCCN1Cc1ccc(F)nc1 | 0.32 ppm | 
N#Cc1ccc(CN2CCN/C2=C\[N+](=O)[O-])cn1 | 200 ppm | 
O=[N+]([O-])/N=C1/N(CCCCCCN2CCN(Cc3ccc(Cl)nc3)/C2=N/[N+](=O)[O-])CCN1Cc1ccc(Cl)nc1 [Hexamethylene 1,6-bis-imadacloprid] |  | mortality (Nephotettix cincticeps [2]): 78%; mortality (Nephotettix cincticeps [3]): 56%; mortality (Nephotettix cincticeps [4]): 94%; mortality (Myzus persicae [12]): 83%; mortality (Nephotettix cincticeps [5]): 100%; mortality (Nephotettix cincticeps [6]): 60%; mortality (Nephotettix cincticeps [7]): 100%; mortality (Myzus persicae [13]): 55%; mortality (Nephotettix cincticeps [9]): 94%; mortality (Nephotettix cincticeps [10]): 89%; mortality (Nephotettix cincticeps [11]): 59%; mortality (Myzus persicae [14]): 50%
O=[N+]([O-])/C=C1\NCCN1Cc1cccnc1Cl | 200 ppm | 
O=[N+]([O-])C=C1NCCCS1 | 40 ppm | LC90 (Spodoptera litura): <40 ppm; half-life [8]: 0.5 h
Cc1ccc(CN2CCN/C2=C\[N+](=O)[O-])cc1 | 200 ppm | 
O=[N+]([O-])/C=C1\NCCN1Cc1cnco1 | 40 ppm | 
O=[N+]([O-])/C=C1\NCCN1Cc1ccc(Cl)nc1 | 0.32 ppm | half-life [8]: 1 h
N#C/N=C1\NCCN1Cc1ccc(Cl)nc1 | 0.32 ppm | half-life [8]: > 24 h
CCN1CCN(Cc2ccc(Cl)nc2)/C1=N/[N+](=O)[O-] | 8 ppm | 
O=[N+]([O-])/C=C1\NCCN1CC1CCCO1 (centres undefined) | 500 ppm | 
O=[N+]([O-])/C=C1\NCCN1Cc1ccncn1 | 40 ppm | 
O=[N+]([O-])/C=C1\NCCN1c1ccccc1 | 1000 ppm | 
O=[N+]([O-])/C=C1\NCCN1Cc1ccccc1Cl | inactive | 
CC(C)N1CCN(Cc2ccc(Cl)nc2)/C1=N/[N+](=O)[O-] | 40 ppm | 
N#C/C=C1\NCCN1Cc1ccc(Cl)nc1 | inactive | 
O=[N+]([O-])/C=C1\NCCN1Cc1ccsc1 | 200 ppm | 
CCCN1CCN(Cc2ccc(Cl)nc2)/C1=N/[N+](=O)[O-] | 0.32 ppm | 
